Earlier results on 36 molecules are cited in paper PMC9976286, “Combination of In Silico and In Vitro Screening to Identify Novel Glutamate Carboxypeptidase II Inhibitors” (Journal of Chemical Information and Modeling, 2023).

Like-named read-outs stand apart in the source and are kept apart here.

The test system of this data set is GCPII. To be noted: cited from earlier work; for Ki: read-out: Ki[nM] (54 actives, PDB ID).
Where [1] appears, read: listed by ChEMBL ID or PDB ID, read-out: GCPII IC50 (Fig. S20, inhibitors with subnanomolar activities).
The mark [2] stands for this setting: dataset of 54 GCPII ligands compiled from the PDB, read-out: IC50[nM] (54 actives, PDB ID).
The mark [3] stands for this setting: dataset of 54 GCPII ligands compiled from the PDB.

Broadly, the IC50 is the midpoint of a concentration-inhibition curve. For `O=C(O)CC[C@H](NC(=O)N[C@@H](CCCC(=O)N(CCNC(=O)c1ccc(F)cc1)c1ccccc1)C(=O)O)C(=O)O` [CHEMBL4286872], under setting [1], the IC50 is 0.15 nM. As to `CN(C(=O)CCC[C@H](NC(=O)N[C@@H](CCC(=O)O)C(=O)O)C(=O)O)c1ccc(F)cc1` [CHEMBL4288368], the IC50 under setting [1] was 0.2 nM. Take `CN(Cc1cccc(F)c1)C(=O)CCC[C@H](NC(=O)N[C@@H](CCC(=O)O)C(=O)O)C(=O)O` [CHEMBL4291245]: the IC50 under setting [1] was 0.46 nM. Consider `O=C(O)CC[C@H](NC(=O)N[C@@H](CCCC(=O)NCCNC(=O)c1ccc(F)cc1)C(=O)O)C(=O)O` [CHEMBL4294773], for which the IC50 under setting [1] is 0.94 nM.

For `N[C@@H](Cn1oc(=O)[nH]c1=O)C(=O)O` [Compound 2JBK], the IC50 under setting [2] was 9500 nM. With `O=C(O)CC[C@H](NC(=O)N[C@@H](CCCCn1cc(COCCOCCNc2ccc([N+](=O)[O-])cc2[N+](=O)[O-])nn1)C(=O)O)C(=O)O` [Compound 2XEI], the half-inhibitory concentration (IC50) under setting [2] was 0.54 nM. With `O=C(O)CC[C@H](C[P@@](=O)(O)CCC(=O)O)C(=O)O` [Compound 3BHX], under setting [2], the IC50 was 0.7 nM. With `N[C@@H](CC[P@](=O)(O)C[C@@H](CCC(=O)O)C(=O)O)C(=O)O` [Compound 3BI0], the IC50 under setting [2] is 14 nM. As to `CN(Cc1cnc2nc(N)nc(N)c2n1)c1ccc(C(=O)N[C@H](CC[P@@](=O)(O)C[C@@H](CCC(=O)O)C(=O)O)C(=O)O)cc1` [Compound 3BI1, (2S)-2-{[(R)-[(3R)-3-carboxy-3-{[(4-{[(2,4-diaminopteridin-6-yl)methyl](methyl)amino}phenyl)carbonyl]amino}propyl](hydroxy)phosphoryl]methyl}pentanedioic acid], under setting [2], the IC50 was 0.12 nM. `O=C(O)CC[C@H](NC(=O)N[C@@H](CSCc1ccc(F)cc1)C(=O)O)C(=O)O` [Compound 3D7D]: the IC50 under setting [2] was 14 nM. Turning to `O=C(O)CC[C@H](NC(=O)N[C@@H](Cc1ccc(O)c(I)c1)C(=O)O)C(=O)O` [Compound 3D7F], under setting [2], the IC50 is 0.5 nM.

For the molecule `CSC[C@H](NC(=O)N[C@@H](CCC(=O)O)C(=O)O)C(=O)O` [Compound 3D7G], the IC50 under setting [2] is 17 nM. As to `CSCC[C@H](NC(=O)N[C@@H](CCCCNC(=O)c1ccc(I)cc1)C(=O)O)C(=O)O` [Compound 3SJF], under setting [2], the IC50 was 23 nM. Consider `O=C(O)CC[C@H](N[P@](=O)(O)OCCC[C@H](NC(=O)CC[C@H](NC(=O)c1ccc(F)cc1)C(=O)O)C(=O)O)C(=O)O` [Compound 4LQG], for which, under setting [2], the half-maximal inhibitory concentration (IC50) is 1.3 nM. One may read the Ki as the equilibrium dissociation constant of an inhibitor or competing ligand from its target. For the molecule `CC(=O)N(CCCC[C@H](NC(=O)N[C@@H](CCC(=O)O)C(=O)O)C(=O)O)Cc1ccc(Br)cc1` [Compound 4NGM], the Ki under setting [3] was 0.0449 nM. On to `O=CNCCCC[C@H](NC(=O)N[C@@H](CCC(=O)O)C(=O)O)C(=O)O` [Compound 4NGN], for which the Ki under setting [3] is 0.268 nM.

In the case of `O=C(N[C@@H](CCCCNC(=O)c1ccc(I)cc1)C(=O)O)NC1(C(=O)O)CC1` [Compound 4OC0], the Ki under setting [3] was 318 nM. As for `O=C(N[C@@H](CCCCNC(=O)c1ccc(I)cc1)C(=O)O)N[C@@H](C[C@H]1CO1)C(=O)O` [Compound 4OC1], under setting [3], the inhibition constant Ki is 254 nM. As for `C#CC[C@H](NC(=O)N[C@@H](CCCCNC(=O)c1ccc(I)cc1)C(=O)O)C(=O)O` [Compound 4OC2], under setting [3], the Ki is 5.3 nM. Take `O=C(N[C@@H](CCCCNC(=O)c1ccc(I)cc1)C(=O)O)N[C@@H](Cc1ccco1)C(=O)O` [Compound 4OC3]: the Ki under setting [3] was 5.3 nM. Regarding `O=C(N[C@@H](CCCCNC(=O)c1ccc(I)cc1)C(=O)O)N[C@@H](Cc1ccncc1)C(=O)O` [Compound 4OC4], the Ki under setting [3] was 105 nM. In the case of `O=C(N[C@@H](CCCCNC(=O)c1ccc(I)cc1)C(=O)O)N[C@H](C(=O)O)c1ccc(O)cc1` [Compound 4OC5], under setting [3], the Ki is 85 nM. Consider `O=C(O)CC[C@H](N[P@](=O)(O)OCCNC(=O)c1ccccc1)C(=O)O` [Compound 4P4D], for which, under setting [2], the IC50 was 1800 nM. Turning to `O=C(O)CC[C@H](N[P@](=O)(O)OCCCCc1ccccc1)C(=O)O` [Compound 4P4E], the IC50 under setting [2] is 180 nM. Take `O=C(O)CC[C@H](N[P@](=O)(O)OCc1ccc(-c2ccccc2)cc1)C(=O)O` [Compound 4P4F]: the IC50 under setting [2] is 168 nM. Turning to `O=C(O)CC[C@H](N[P@](=O)(O)OC[C@H](NC(=O)c1ccccc1)C(=O)O)C(=O)O` [Compound 4P4I], the IC50 under setting [2] is 35 nM. For `O=C(O)CC[C@H](N[P@](=O)(O)OC[C@@H](NC(=O)c1ccccc1)C(=O)O)C(=O)O` [Compound 4P4J], the IC50 under setting [2] was 700 nM. In the case of `CC[C@@H](C)[C@H](NC(=O)c1ccc(F)cc1)C(=O)N[C@@H](CO[P@@](=O)(O)N[C@@H](CCC(=O)O)C(=O)O)C(=O)O` [Compound 4P44], under setting [2], the IC50 was 16 nM. In the case of `CC(C)[C@H](NC(=O)c1ccc(F)cc1)C(=O)N[C@@H](CO[P@@](=O)(O)N[C@@H](CCC(=O)O)C(=O)O)C(=O)O` [Compound 4P45], under setting [2], the half-maximal inhibitory concentration (IC50) is 16 nM. Regarding `O=C(CC[C@@H](Cc1ccc(C(=O)O)cc1)C(=O)O)NO` [Compound 5D29], under setting [2], the IC50 is 97 nM.

For the molecule `O=C(CC[C@H](Cc1ccc(C(=O)O)cc1)C(=O)O)NO` [Compound 5ELY], the IC50 under setting [2] is 44 nM. Consider `O=C(O)CC[C@H](NC(=O)N[C@@H](CCCC(=O)NCc1ccc(F)cc1)C(=O)O)C(=O)O` [Compound 5OF0], for which the IC50 under setting [2] was 2.32 nM. On to `O=C(O)CC[C@H](NC(=O)N[C@@H](CCCC(=O)Nc1ccc(F)cc1)C(=O)O)C(=O)O` [Compound 6H7Y], for which, under setting [2], the IC50 was 0.35 nM.

On to `CN(C(=O)CCC[C@H](NC(=O)N[C@@H](CCC(=O)O)C(=O)O)C(=O)O)c1ccc(F)nc1` [Compound 6H7Z], for which, under setting [2], the IC50 is 0.13 nM. `O=C(O)CC[C@H](NC(=O)N[C@@H](CCCC(=O)Nc1ccc(F)nc1)C(=O)O)C(=O)O` [Compound 6HKJ]: under setting [2], the IC50 was 0.99 nM. As to `O=C(O)CC[C@H](NC(=O)N[C@@H](CCCC(=O)N(CCNC(=O)c1ccc(F)nc1)c1ccccc1)C(=O)O)C(=O)O` [RNA 2-49-1], the IC50 under setting [2] is 0.075 nM and the IC50 (read-out: GCPII IC50) was 0.08 nM.
